From ChEMBL document CHEMBL1122571, “Design and synthesis of tetrahedral intermediate analogues as potential dihydroorotase inhibitors” (J Med Chem, 1984)

These molecules were tested against Multifunctional protein CAD (Mus musculus, UniProt B2RQC6) (assay: Compound was evaluated for the inhibition of dihydroorotase enzyme from mouse Ehrlich ascites at the concentration of 10 uM and at pH 7.37). Conditions: read-out: I50.
Multifunctional protein CAD, sequence (B2RQC6 whole entry): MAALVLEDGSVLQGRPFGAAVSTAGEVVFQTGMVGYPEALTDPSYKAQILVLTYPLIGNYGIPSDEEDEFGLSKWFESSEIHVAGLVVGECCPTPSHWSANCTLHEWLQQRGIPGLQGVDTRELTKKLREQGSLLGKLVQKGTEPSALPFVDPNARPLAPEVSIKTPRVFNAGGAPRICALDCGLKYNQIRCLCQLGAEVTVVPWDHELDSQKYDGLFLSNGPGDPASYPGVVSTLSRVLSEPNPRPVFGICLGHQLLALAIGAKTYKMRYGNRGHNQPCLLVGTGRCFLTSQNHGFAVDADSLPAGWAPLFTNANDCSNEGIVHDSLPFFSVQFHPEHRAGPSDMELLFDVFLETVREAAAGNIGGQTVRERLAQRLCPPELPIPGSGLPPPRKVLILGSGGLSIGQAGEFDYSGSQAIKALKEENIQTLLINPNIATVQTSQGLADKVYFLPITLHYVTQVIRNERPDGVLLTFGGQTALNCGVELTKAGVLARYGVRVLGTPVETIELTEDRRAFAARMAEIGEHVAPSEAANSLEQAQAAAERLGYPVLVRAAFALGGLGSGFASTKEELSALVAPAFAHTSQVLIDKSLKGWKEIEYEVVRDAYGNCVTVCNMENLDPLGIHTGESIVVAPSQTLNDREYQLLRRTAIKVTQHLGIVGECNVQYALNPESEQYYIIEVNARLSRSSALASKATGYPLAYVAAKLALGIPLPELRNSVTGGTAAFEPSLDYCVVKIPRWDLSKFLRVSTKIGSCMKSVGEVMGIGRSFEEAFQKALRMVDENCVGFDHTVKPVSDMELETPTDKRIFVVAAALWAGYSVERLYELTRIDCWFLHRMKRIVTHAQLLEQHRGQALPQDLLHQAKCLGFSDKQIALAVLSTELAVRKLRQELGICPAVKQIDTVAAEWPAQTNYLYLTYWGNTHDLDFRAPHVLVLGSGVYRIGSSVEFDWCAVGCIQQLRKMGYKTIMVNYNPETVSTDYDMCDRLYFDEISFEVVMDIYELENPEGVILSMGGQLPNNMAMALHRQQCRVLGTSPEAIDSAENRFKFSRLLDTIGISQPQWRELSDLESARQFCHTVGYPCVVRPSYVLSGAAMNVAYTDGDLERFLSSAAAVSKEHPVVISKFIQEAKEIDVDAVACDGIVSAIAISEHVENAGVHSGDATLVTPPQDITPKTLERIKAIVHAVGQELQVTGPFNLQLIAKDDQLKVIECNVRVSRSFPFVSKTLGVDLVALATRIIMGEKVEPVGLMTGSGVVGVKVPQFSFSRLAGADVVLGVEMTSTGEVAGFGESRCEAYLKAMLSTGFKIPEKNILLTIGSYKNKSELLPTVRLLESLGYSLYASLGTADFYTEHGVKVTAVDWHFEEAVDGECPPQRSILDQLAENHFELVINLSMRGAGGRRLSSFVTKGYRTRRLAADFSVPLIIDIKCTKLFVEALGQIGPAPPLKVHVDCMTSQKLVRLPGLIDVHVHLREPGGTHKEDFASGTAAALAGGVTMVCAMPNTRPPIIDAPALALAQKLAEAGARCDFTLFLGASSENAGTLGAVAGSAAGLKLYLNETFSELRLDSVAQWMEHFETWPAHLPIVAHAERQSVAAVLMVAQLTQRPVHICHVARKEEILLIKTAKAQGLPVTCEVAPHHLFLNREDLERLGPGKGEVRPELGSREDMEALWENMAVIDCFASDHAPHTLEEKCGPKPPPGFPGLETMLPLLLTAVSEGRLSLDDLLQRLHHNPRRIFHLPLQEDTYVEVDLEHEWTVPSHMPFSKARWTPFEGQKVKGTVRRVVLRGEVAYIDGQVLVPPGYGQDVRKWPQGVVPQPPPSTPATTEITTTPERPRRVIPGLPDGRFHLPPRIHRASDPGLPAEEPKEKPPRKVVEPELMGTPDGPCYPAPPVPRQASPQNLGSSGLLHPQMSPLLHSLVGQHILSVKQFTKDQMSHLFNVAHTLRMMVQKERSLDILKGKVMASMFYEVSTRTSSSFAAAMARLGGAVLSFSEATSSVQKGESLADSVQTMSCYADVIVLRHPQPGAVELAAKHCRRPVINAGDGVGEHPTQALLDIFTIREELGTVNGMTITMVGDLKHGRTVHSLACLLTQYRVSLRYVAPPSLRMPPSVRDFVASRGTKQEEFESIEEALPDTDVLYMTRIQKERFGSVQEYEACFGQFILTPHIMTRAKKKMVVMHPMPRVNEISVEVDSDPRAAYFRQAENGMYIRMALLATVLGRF
Molecule `O=C1CSCC(C(=O)O)N1` (stereo not given) has an IC50 of under 1000 µM.
Molecule `NC(=O)NC(CP(=O)(O)O)C(=O)O` (stereo not given) has an IC50 of over 1000 µM.
With `O=C1C[S+]([O-])CC(C(=O)O)N1` (stereo not given) the IC50 was 180 µM.
`C[S+]1([O-])=NC(=O)NC(C(=O)O)C1` (stereo not given) gave an IC50 of over 1000 µM.
`O=C1NC(C(=O)O)CS(=O)(=O)N1` (stereo not given) was tested, and the IC50 was 520 µM.
